Assay results published in US20260365637A1, “DUAL EZH2-HSP90 INHIBITORS” (TAIPEI MEDICAL UNIVERSITY, priority 2023, published 2026).
pIC50: −log10 of the molar value.

How the values were obtained:
[1] = system: Pt3R tumors; test: Growth of TMZ-resistant Pt3R tumors in mice; format: in vivo, NOD.CB17-Prkdc^scid/NCrCrl mice; conditions: 5 mg/kg twice weekly
Protocol: NOD.CB17-Prkdc^scid/NCrCrl mice (8-week-old) were purchased from BioLASCO Taiwan Co., Ltd. (Taipei, Taiwan). Pt3R cells (1×10^6) in […] DMEM were injected onto the backs of mice. After 10 days, tumor was touchable. Mice were injected with DMSO (the control group) or MPT1A059 (5 mg/kg) twice per week.
In-vivo anti-GBM efficacy of compound 7 was also evaluated in this study. For the in-vivo study, experimental NOD.CB17-Prkdc^scid/NCrCrl mice (8-week-old) were used and Pt3R cells (1×10^6) in […] DMEM were injected into the backs of mice. After 10 days, the tumor was detectable. Mice were injected with DMSO (the control group) or compound 7 (5 mg/kg) twice weekly. […] In a nutshell, the outcome of the in-vivo study ascertains that the remarkable in vitro anti-GBM activity profile of dual inhibitor 7 was translated to the in-vivo potential.

[2] = system: Pt3R cells; test: Cell cycle analysis (propidium iodide, flow cytometry); format: cell-based, human; conditions: 24 h, FIG. 5E
[3] = system: Pt3R cells; test: RNA-seq gene expression profiling in Pt3R cells; format: cell-based, human
Protocol: Pt3 GBM cells were isolated from a GBM patient as described in our previous study. Temozolomide (TMZ)-resistant phenotype of Pt3R cells had been validated previously. Pt3 cells were cultured in DMEM-supplemented with 10% fetal bovine serum, 100 μg/ml streptomycin and 100 μg/ml penicillin G. Pt3R cells were cultured in the presence of 100 μM of TMZ (MilliporeSigma Corporate, St. Louis, MO, USA).
RNA was isolated using the RNA extracting kit (Zymo Research, Irvine, CA, USA), and subjected to RNA-seq serviced by BIOTOOLS Co., Ltd (New Taipei City, Taiwan). Cell pellets were collected and subjected to proteomic analysis serviced by BIOTOOLS Co., Ltd. The comparison in gene expression between Pt3 and Pt3R was performed using RNA seq, and has been described previously.
To gain insights regarding the ability of dual inhibitor 7 to suppress the viability of TMZ-resistant GBM cells, RNA-seq to analyze gene expression profiles was performed.

[4] = system: Pt3R cells; test: Western blotting in Pt3R cells; format: cell-based, human
Description: The details of the procedure are described in our previous study. Primary antibodies, anti-CENPA, anti-CENPE, anti-CENPF and anti-CENPI antibodies, were purchased from abcam (Cambridge, UK); anti-CDK1 and anti-cyclin B1 antibodies were purchased from Santa Cruz Biotechnology, Inc. (Dallas, TX, USA); anti-EZH2 and anti-H3K27^me3 antibodies were purchased from GeneTex International Corporation (Hsinchu, Taiwan).
Furthermore, the impact of compound 7 treatment on centromere proteins (CENPs) was assessed. As such, CENPs are the main constituent proteins of the kinetochore, which are essential for cell division. CENP expression is elevated in GBM tissues and correlated with unfavourable overall survival in glioma patients.
(§1) Treatment concentration of MPT1A059 was indicated.

[5] = system: Pt3R cells; test: Cellular ROS assay (DHR, flow cytometry) in Pt3R cells; format: cell-based, human; conditions: 48 h, FIG. 7A
Description: Dihydrorhodamine 123 (DHR; Thermo Fisher Scientific, Waltham, MA, USA) was used to label cellular ROS detected by flow cytometry, and the MitoSOX reagent (Thermo Fisher Scientific) was used to label mitochondrial ROS [55].
as §1

[6] = system: Pt3R cells; test: Proliferation of Pt3R cells after treatment (FIG. 4A); format: cell-based, human; conditions: 2 μM, 48 h
[7] = target: EZH2 (Core Histone) (Homo sapiens, UniProt Q15910); test: EZH2 inhibition assay (Reaction Biology Corporation); format: biochemical
Protocol: The EZH2 inhibitory ability of the synthesized adduct was assessed by Reaction Biology Corporation, Malvern, PA (http://www.reactionbiology.com).

Chain of EZH2 (Core Histone) (Q15910 whole entry): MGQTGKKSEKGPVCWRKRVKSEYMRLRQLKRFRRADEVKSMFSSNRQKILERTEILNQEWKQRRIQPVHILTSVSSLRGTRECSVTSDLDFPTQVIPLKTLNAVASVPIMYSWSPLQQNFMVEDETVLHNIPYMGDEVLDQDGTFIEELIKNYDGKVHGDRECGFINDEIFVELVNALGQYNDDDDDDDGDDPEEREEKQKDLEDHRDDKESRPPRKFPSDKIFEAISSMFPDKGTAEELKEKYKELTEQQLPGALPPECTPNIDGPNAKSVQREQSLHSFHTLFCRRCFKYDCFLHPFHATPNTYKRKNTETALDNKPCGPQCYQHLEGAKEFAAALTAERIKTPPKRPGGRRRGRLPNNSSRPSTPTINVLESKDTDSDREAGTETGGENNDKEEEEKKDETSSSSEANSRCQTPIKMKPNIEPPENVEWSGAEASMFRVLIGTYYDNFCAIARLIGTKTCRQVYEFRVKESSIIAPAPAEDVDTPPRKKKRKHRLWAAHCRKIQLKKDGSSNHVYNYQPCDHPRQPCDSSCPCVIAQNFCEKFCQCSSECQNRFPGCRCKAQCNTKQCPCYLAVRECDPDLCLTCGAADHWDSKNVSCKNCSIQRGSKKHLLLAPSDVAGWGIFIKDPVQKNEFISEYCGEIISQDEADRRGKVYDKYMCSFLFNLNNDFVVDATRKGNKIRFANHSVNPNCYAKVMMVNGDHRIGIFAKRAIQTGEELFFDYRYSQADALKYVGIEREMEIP
Chain of EZH2 (Core Histone) (O75530 whole entry partner): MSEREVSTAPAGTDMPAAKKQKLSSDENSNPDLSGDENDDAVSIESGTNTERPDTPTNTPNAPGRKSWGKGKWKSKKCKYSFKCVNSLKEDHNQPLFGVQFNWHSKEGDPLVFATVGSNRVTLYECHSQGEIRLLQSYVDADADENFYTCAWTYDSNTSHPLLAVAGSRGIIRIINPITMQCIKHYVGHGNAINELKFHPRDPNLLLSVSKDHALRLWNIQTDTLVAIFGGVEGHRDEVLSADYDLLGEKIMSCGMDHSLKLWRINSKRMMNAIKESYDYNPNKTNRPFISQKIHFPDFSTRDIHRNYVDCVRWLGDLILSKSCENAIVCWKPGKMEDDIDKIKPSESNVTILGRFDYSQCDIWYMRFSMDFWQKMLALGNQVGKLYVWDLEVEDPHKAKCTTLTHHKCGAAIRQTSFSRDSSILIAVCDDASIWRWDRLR
Chain of EZH2 (Core Histone) (Q15022 whole entry partner): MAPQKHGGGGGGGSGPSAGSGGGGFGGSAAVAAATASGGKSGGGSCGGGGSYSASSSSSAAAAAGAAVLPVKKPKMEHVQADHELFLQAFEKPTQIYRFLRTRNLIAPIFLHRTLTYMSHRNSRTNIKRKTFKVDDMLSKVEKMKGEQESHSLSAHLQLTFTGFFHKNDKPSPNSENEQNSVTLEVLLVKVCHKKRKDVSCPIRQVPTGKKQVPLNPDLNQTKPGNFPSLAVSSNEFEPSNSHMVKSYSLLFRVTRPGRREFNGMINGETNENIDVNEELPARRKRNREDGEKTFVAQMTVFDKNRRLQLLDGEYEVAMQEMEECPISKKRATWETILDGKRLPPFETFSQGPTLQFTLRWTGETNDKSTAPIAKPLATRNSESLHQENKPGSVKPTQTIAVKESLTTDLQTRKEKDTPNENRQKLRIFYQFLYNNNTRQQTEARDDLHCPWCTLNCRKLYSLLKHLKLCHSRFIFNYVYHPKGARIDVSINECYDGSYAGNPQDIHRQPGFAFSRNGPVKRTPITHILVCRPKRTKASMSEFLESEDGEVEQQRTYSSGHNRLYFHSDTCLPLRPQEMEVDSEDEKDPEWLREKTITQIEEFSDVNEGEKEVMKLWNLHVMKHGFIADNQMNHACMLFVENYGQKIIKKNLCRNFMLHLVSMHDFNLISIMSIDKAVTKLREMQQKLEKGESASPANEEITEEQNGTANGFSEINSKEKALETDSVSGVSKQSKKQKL
Chain of EZH2 (Core Histone) (Q09028 whole entry partner): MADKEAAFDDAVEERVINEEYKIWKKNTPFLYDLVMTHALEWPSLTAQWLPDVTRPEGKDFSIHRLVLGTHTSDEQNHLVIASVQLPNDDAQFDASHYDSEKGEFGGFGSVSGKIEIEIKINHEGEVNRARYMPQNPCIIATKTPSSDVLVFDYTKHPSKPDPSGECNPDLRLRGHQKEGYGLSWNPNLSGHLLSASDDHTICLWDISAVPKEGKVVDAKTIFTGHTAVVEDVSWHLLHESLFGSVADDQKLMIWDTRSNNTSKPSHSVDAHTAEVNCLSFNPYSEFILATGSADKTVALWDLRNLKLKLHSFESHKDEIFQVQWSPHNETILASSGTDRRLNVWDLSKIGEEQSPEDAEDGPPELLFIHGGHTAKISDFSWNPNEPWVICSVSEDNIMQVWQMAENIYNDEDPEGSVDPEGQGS
Chain of EZH2 (Core Histone) (Q6ZN18 whole entry partner): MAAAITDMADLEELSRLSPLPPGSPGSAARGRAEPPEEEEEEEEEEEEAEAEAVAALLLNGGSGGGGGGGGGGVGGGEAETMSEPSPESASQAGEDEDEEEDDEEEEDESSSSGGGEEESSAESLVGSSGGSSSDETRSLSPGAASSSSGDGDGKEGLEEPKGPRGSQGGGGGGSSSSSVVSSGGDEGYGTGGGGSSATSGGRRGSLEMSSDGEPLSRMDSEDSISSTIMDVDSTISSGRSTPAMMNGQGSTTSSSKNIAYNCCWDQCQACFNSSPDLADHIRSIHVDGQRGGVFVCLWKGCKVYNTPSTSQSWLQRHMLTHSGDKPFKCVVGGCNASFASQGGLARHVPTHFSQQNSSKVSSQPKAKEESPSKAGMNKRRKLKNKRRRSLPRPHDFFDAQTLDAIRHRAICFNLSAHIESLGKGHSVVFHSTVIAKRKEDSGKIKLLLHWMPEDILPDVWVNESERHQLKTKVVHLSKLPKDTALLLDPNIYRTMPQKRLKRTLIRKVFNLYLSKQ

CCN(c1cc(-c2cccc(N(C)C(=O)c3cc(C(C)C)c(O)cc3O)c2)cc(C(=O)NCc2c(C)cc(C)[nH]c2=O)c1C)C1CCOCC1 [Compound 7, 3′-(2,4-dihydroxy-5-isopropyl-N-methylbenzamido)-N-((4,6-dimethyl-2-oxo-1,2-dihydropyridin-3-yl)methyl)-5-(ethyl(tetrahydro-2H-pyran-4-yl)amino)-4-methyl-[1,1′-biphenyl]-3-carboxamide]
tumor size and weight compared to DMSO-treated mice ([1]; FIG. 8A): significantly smaller sizes and weights | tumor growth ([1]; FIG. 8B): tumor growth suppression ability | cell cycle [2]: induced cell cycle arrest at the M phase | DNA repair capacity [3]: highly suppressed | CENPF, CENPE, CENPA and CENPI (gene expression) ([3]; FIG. 5C): decreased | RBBP8 and BRCA1 gene expression ([3]; FIG. 6A): suppressed | expression of genes involved in processing DNA double-strand break and in homologous recombination ([3]; FIG. 6A): decreased | expression of genes regulating homologous recombination (TOP2A, RAD54B, RAD21, EME1, BRIP1) ([3]; FIG. 6H): suppressed | cell division and DNA repair gene sets (GSEA) ([3]; GSEA): highly suppressed | M phase/kinetochore/spindle-related gene expression ([3]; RNA-seq): decreased | apoptosis/necrosis-related gene expression ([3]; RNA-seq): increased | number of gene expressions decreased ([3]; RNA-seq, 2 μM, 48 h): 498 | number of gene expressions increased ([3]; RNA-seq, 2 μM, 48 h): 297 | CDK1 and cyclin B1 expression ([4]; FIG. 5D): downregulated | EZH2 expression and EZH2-modulated H3K27 trimethylation ([4]; FIG. 7B): inhibited | catalase, superoxide dismutase (SOD) 1, glutathione reductase and glutathione peroxidase (GPX) 1 proteins ([4]; FIG. 7B): decreased | CENPs protein expression ([4]; Pt3R cells, FIG. 5D): decreased | ROS level [5]: increased | cell proliferation [6]: significantly inhibited cell proliferation | pIC50 [7]: 8.20
